The source made the active and inactive calls.
Legend:
[1] = Luminescence Cell-Based Dose Response HTS to Identify Inhibitors of 5'UTR Stem-Loop Driven Prion Protein mRNA Translation in H4 Neuroglioblastoma Cells. [Related pubchem assays: 1827 (Project Summary), 1813 (Primary HTS)]; format: functional
[2] = cells; format: functional
[3] = target: T1, Cytochrome P450 1A2 (Homo sapiens, UniProt P05177);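 note: PubChem cytochrome P450 panel assay, CYP1A2 panel member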
T1 sequence (P05177 whole entry): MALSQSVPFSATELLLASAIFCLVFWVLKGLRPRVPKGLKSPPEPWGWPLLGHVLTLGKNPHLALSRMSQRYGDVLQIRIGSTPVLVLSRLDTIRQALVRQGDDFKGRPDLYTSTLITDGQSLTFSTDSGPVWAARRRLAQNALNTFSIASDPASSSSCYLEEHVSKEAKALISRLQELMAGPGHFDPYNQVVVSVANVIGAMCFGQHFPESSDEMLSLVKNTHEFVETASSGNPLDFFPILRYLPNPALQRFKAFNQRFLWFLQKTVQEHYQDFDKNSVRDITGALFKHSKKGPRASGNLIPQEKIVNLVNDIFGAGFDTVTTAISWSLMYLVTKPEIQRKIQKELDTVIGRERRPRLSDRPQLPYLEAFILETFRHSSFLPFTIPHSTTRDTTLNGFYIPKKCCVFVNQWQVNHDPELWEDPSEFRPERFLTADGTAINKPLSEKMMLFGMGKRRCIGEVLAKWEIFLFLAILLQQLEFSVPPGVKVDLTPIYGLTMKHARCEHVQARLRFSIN

[4] = system: H9c2; test: cells; format: functional, cell-based; details: Rattus norvegicus, H9c2, Myocardium;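 note: confirmatory concentration-response retest of ultra-high-throughput screening hits for modulation of myocardial damage; cell death induced by hydrogen peroxide oxidative stress; compound pretreatment for 60 min then peroxide exposure for 2 h; potency is for protecting the cells against peroxide damage rather than for killing them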
[5] = target: Cytochrome P450 2D6 (Homo sapiens, UniProt P10635)
[6] = target: Cytochrome P450 2C19 (Homo sapiens, UniProt P33261); test: Cytochrome panel assay with activity outcomes. Panel member name: p450-cyp2c19 Compounds with AC50 equal or less than 10 uM are considered active; format: functional; details: read-out: AC50
[7] = target: T2, Heat shock factor protein 1 (Mus musculus, UniProt P38532); test: inhibition of MG132-induced HSE-luciferase signal, confirmation, cell-based, NIH3T3, luminescence, dose retest (AID 2382); format: functional;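 note: NIH3T3 fibroblasts with HSF1-driven luciferase reporter stressed by proteasome inhibitor MG132; luminescence from HSF1-driven luciferase expression after 8 hours of MG132 stress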
T2 sequence (P38532 whole entry): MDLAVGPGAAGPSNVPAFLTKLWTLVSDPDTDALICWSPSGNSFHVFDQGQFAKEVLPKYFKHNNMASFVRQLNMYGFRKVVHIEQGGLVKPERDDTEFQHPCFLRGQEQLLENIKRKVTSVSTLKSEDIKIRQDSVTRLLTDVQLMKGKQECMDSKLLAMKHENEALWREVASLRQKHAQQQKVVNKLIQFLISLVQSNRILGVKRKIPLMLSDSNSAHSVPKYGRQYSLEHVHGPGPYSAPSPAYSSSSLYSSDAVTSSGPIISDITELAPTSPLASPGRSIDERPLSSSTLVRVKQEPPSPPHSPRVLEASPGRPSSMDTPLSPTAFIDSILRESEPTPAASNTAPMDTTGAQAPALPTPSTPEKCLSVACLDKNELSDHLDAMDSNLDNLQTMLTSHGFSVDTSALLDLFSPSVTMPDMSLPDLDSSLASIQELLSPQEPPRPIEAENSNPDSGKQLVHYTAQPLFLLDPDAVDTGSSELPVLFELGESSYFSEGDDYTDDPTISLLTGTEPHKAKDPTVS

[8] = inhibitors of SNCA 5'UTR-driven reporter translation, confirmation, H4 neuroglioma cells, luminescence (AID 1988); format: functional, cell-based
[9] = inhibitors of firefly luciferase expression or activity, dose response, H4 neuroglioma cells, luminescence (AID 1990); format: functional, cell-based
[10] = inhibitors of intracellular T. cruzi replication, confirmation, NIH3T3 host cells, beta-gal luminescence (AID 2044); format: functional, cell-based;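 note: intracellular parasites grown in NIH/3T3 mouse fibroblasts as host cells; luminescent beta-galactosidase reporter signal from transgenic T. cruzi replicating inside host cells; inhibitors lower the luminescence signal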
[11] = cytotoxicity toward NIH3T3 fibroblasts, dose response, counter-screen, cell-based, ATP luminescence, mouse fibroblasts (AID 2010); format: functional;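 note: cells exposed to compound for about 90 hours before reading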
[12] = target: Cytochrome P450 2C9 (Homo sapiens, UniProt P11712)
[13] = target: Cytochrome P450 3A4 (Homo sapiens, UniProt P08684);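 note: CYP3A4 tested as one member of a cytochrome P450 panel screen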
Cytochrome P450 3A4, sequence (P08684 whole entry): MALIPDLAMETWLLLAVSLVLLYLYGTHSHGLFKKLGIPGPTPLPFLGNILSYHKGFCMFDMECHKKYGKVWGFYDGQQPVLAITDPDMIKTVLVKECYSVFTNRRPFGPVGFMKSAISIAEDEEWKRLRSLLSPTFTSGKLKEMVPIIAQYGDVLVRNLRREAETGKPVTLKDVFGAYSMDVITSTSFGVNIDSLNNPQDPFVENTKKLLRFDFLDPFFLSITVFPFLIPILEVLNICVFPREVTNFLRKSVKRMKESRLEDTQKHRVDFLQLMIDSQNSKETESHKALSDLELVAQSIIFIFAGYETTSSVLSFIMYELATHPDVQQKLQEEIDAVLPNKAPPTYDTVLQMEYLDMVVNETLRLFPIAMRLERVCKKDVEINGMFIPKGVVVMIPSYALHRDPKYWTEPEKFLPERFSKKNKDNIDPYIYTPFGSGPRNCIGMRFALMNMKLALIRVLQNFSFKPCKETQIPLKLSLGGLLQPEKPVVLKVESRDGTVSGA

Cytochrome P450 2C19, sequence (P33261 whole entry): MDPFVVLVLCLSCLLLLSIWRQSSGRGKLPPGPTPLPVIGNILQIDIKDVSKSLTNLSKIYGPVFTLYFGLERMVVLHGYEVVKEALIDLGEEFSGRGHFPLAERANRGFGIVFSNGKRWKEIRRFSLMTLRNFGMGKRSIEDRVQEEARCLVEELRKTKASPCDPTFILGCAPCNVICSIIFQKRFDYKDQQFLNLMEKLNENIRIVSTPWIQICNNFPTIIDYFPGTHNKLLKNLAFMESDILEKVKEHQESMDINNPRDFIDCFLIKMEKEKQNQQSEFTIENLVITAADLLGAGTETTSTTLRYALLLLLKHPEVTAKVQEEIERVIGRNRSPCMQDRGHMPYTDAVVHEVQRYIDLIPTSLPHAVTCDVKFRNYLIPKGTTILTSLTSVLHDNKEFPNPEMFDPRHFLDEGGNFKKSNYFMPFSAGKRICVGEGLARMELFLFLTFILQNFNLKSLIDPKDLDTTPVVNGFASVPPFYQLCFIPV
Cytochrome P450 2C9, sequence (P11712 whole entry): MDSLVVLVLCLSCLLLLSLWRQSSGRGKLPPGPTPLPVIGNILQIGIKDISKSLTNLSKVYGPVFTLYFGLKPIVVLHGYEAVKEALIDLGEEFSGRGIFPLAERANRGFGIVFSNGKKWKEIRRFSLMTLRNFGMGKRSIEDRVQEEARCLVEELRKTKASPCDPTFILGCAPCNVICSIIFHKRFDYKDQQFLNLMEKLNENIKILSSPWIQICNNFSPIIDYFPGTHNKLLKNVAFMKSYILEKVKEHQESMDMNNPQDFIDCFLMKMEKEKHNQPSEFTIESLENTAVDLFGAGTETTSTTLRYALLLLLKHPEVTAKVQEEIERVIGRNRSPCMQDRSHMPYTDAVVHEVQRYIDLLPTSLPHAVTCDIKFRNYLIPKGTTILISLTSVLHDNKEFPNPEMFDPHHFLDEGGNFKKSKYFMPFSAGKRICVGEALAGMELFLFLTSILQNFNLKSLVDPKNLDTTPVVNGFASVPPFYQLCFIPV
Cytochrome P450 2D6, sequence (P10635 whole entry): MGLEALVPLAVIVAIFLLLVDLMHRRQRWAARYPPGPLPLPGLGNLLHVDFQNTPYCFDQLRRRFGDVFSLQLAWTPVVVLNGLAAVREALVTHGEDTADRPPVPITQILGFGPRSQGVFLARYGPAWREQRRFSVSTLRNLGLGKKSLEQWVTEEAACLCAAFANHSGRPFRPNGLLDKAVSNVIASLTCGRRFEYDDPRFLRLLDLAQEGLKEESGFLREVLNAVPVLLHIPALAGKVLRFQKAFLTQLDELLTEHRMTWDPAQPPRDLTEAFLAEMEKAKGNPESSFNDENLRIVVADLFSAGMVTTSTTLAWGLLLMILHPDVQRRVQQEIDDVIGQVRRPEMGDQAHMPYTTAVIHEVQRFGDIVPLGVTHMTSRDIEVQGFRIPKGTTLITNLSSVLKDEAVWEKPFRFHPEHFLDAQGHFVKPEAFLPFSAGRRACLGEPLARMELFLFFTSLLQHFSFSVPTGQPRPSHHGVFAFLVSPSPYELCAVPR

C(=C\c1nnc2c3ccccc3ncn12)/c1ccccc1
EC50 [1]: 7.36 µM (active)

CCn1nnc(NC(=O)COc2ccc(C3CCCCC3)cc2)n1
IC50 [2]: 18.4 µM (active)

Cc1cccc(C(=O)O)c1C[C@H]1NCC[C@H]2c3ccccc3N[C@@H]12
AC50 [3]: 0.0631 µM (inconclusive)

CC1(c2ccccc2)NC(=O)N(CC(=O)Nc2cccc(/C=C/c3ccccn3)c2)C1=O (stereo unspecified)
IC50 [4]: > 79 µM (inactive)

COc1ccc2cc3cc(C(=O)Nc4cc(OC)c(OC)c(OC)c4)oc3nc2c1
IC50 [4]: > 79 µM (inactive)

CCN(CC(=O)Nc1ccc(OC)cc1)C(=O)c1cc(-c2cccs2)nn1-c1ccccc1
IC50 [4]: 36.6 µM (inactive)

CC(=O)OCc1nc(O)c2c(C)c(C)sc2n1
IC50 [4]: > 79 µM (inactive)

COc1cc(-c2cc3nc(NCCc4ccc(S(N)(=O)=O)cc4)ccn3n2)cc(OC)c1OC
IC50 [4]: > 79 µM (inactive)

COc1cc(/C=C/c2n[nH]c(-c3ccccc3O)n2)cc(OC)c1OC
IC50 [4]: > 79 µM (inactive)

O=C(c1ccc(F)cc1)C1CCN(C(S)=Nc2ccccc2)CC1
AC50 [3]: 12.6 µM (inconclusive)
AC50 [5]: 14.1 µM (inconclusive)
AC50 [6]: 7.08 µM (inconclusive)

C[C@@H]1CCCC(CC(=O)O)(CC(=O)O)C1
AC50 [3]: 0.631 µM (inconclusive)

CCN(CC)C(=O)c1ccc(O)c(OC)c1
AC50 [3]: 12.6 µM (inconclusive)

CCOC(=O)c1nn(-c2ccccc2)c2nc(Nc3ccccc3)cc(=O)n12
IC50 [2]: 5.99 µM (active)

CN(C(=O)CSc1nc(O)c2c(n1)CCCC2)C1CCCCC1
IC50 [4]: 33.3 µM (inactive)

O=c1ccc(NS(=O)(=O)c2ccc(Cl)cc2)cn1Cc1ccc(Cl)c(Cl)c1
AC50 [3]: 28.2 µM (inconclusive)

CCc1cccc(NC(=O)COC(=O)/C=C/c2cccs2)c1
EC50 [7]: > 195 µM (not active)

Cn1cc(/C=C(\C#N)C(=O)Nc2cccc([N+](=O)[O-])c2)c2ccccc21
EC50 [7]: 4.14 µM (active)

COc1ccc(CCNS(=O)(=O)c2cn(C)cn2)cc1OC
EC50 [1]: > 120 µM (not active)
EC50 [8]: > 120 µM (not active)
EC50 [9]: > 120 µM (not active)

Cc1ccc(C)c(NC(=O)c2cc([N+](=O)[O-])cc([N+](=O)[O-])c2)c1
IC50 [2]: 10.1 µM (active)

CCOc1ncccc1C(=O)OCC(=O)N1CCc2ccccc21
IC50 [2]: 13.9 µM (active)

CC(C)(C)OC(=O)CNC(=O)c1[nH]cnc1C(=O)NC(c1ccccc1)c1ccccc1
IC50 [4]: > 79 µM (inactive)

Brc1c(-c2ccc3c(c2)OCO3)nc2ncccn12
IC50 [2]: 4.7 µM (active)

COc1ccc(C(=O)[C@H]2[C@H]3C(=O)N(c4ccccc4)C(=O)[C@H]3C3C=CC=NN32)cc1 (stereo partly specified)
EC50 [1]: > 120 µM (not active)
EC50 [8]: > 120 µM (not active)
EC50 [9]: > 120 µM (not active)

Cc1ccc(/N=C2\C(Cl)=C(O)OC2OC(C)C)c(C)c1 (stereo unspecified)
EC50 [1]: 24.8 µM (active)
EC50 [8]: > 120 µM (not active)
EC50 [9]: > 120 µM (not active)

Cc1cc(OCC(=O)N2CCOCC2)cc2oc(=O)c3ccccc3c12
IC50 [4]: > 79 µM (inactive)

C=C1SC(Nc2c(C)cc(C)cc2C)=NC12CCCCC2
EC50 [10]: 0.561 µM (active)
EC50 [7]: > 195 µM (not active)
EC50 [11]: > 60 µM (not active)

CCOC(=O)c1c(NC(=O)CNC2CCCc3ccccc32)sc(C(N)=O)c1C (stereo unspecified)
EC50 [7]: 25 µM (active)

CC(=O)COc1ccccc1OC(=O)c1ccco1
EC50 [7]: > 195 µM (not active)

O=C1CCC(=O)N1CNc1ccccn1
EC50 [7]: > 195 µM (not active)

N[C@@H](CCCP(=O)(O)O)C(=O)O
AC50 [3]: 31.6 µM (inconclusive)

CC1(C)CC(=O)C2=C(C1)N(c1ccc(F)cc1)C(=O)CC2c1ccccc1 (stereo unspecified)
EC50 [7]: > 195 µM (not active)

Cc1nnc(NC(=O)c2cccc(NC(=O)C(C)C)c2)s1
AC50 [3]: 39.8 µM (inconclusive)
AC50 [12]: 25.1 µM (inconclusive)

CCC(C)c1ccc(NC(S)=NCCn2cc(Br)cn2)cc1 (stereo unspecified)
EC50 [1]: > 120 µM (not active)
EC50 [8]: > 120 µM (not active)
EC50 [9]: > 120 µM (not active)

CCNc1ncc2nc(-c3ccccc3)c(=O)n(CCc3ccccc3)c2n1
AC50 [3]: 12.6 µM (inconclusive)
AC50 [13]: 15.8 µM (inconclusive)
AC50 [12]: 1.26 µM (inconclusive)

COC(=O)[C@@]1(Cc2ccc(F)cc2)[C@H]2c3cc(C(=O)N(C)C)n(C)c3C[C@H]2CN1C(=O)c1ccccc1
AC50 [3]: 31.6 µM (inconclusive)
AC50 [6]: 25.1 µM (inconclusive)

COc1cccc2cc(C(=O)OC3CCN(C)CC3)c(=O)oc12
EC50 [7]: > 195 µM (not active)

CN(C)c1cc(=O)n2c(n1)SCCC2
AC50 [3]: 12.6 µM (inconclusive)
AC50 [6]: 28.2 µM (inconclusive)

OCC#CCSc1nnc(-c2ccc(Br)cc2)o1
IC50 [2]: 5.2 µM (active)

COc1ccc(-n2c(=O)c(CCc3ccccc3)nc3cncnc32)cc1
AC50 [3]: 25.1 µM (inconclusive)
AC50 [12]: 20 µM (inconclusive)

Cc1ccc2nc(NC(=O)[C@H](C)N3C(=O)C4CC=CCC4C3=O)sc2c1 (stereo partly specified)
EC50 [1]: > 120 µM (not active)
EC50 [9]: 0.556 µM (inconclusive)

CCN(CC)C(=O)CSc1nc(O)c2ccccc2n1
IC50 [4]: > 79 µM (inactive)

Cc1cc(C)nc(SCc2cccc(C(=O)O)c2)n1
EC50 [8]: 28.8 µM (active)
EC50 [9]: 17.5 µM (active)

O=C(NCc1ccc2c(c1)OCO2)c1cc2c(s1)CS(=O)(=O)C2
EC50 [7]: > 195 µM (not active)

COc1ccc2nc(NC(=O)CN3CCOCC3)sc2c1
EC50 [7]: > 195 µM (not active)

CS(=O)(=O)N(CC(=O)NCc1ccccc1)C1CCCCC1
EC50 [7]: > 195 µM (not active)

CN(C(=O)COC(=O)c1c2c(nc3ccccc13)/C(=C/c1cccc([N+](=O)[O-])c1)CCC2)C1CCS(=O)(=O)C1 (stereo unspecified)
EC50 [1]: > 120 µM (not active)
EC50 [8]: 11 µM (active)
EC50 [9]: 11.6 µM (active)

CCOc1ccc(-n2ccnc2SCC(=O)Nc2nnc(CC)s2)cc1
AC50 [3]: 20 µM (inconclusive)

CCCCOc1ccc(N2CC(C(=O)NCCc3ccc(OC)c(OC)c3)CC2=O)cc1 (stereo unspecified)
EC50 [7]: > 195 µM (not active)

CCc1c(C)nc(Nc2nc(C)c3ccc(OC)cc3n2)nc1O
IC50 [4]: > 79 µM (inactive)

COC(=O)COc1ccc2c(=O)c(-c3ccccc3OC)coc2c1
IC50 [2]: 5.9 µM (active)

O=S(=O)(c1ccc(Br)cc1)N1CCC(c2nc3ccccc3[nH]2)CC1
EC50 [8]: > 120 µM (not active)
EC50 [9]: 11.9 µM (active)

O=C(N/N=C/c1ccc(OC(=O)c2ccco2)cc1)c1ccccn1
IC50 [2]: 20.6 µM (active)

CCCC(=O)NC(Nc1ccccc1F)C(Cl)(Cl)Cl (stereo unspecified)
AC50 [3]: 22.4 µM (inconclusive)
AC50 [13]: 14.1 µM (inconclusive)

CN(C)Cc1ccccc1Sc1ccc2c(c1)CCCC2
EC50 [1]: 32.4 µM (active)
EC50 [8]: > 120 µM (not active)
EC50 [9]: > 120 µM (not active)

O=c1[nH]nc(Cc2ccccc2)c2ccccc12
IC50 [4]: > 79 µM (inactive)

Reference: ChEMBL document CHEMBL1201862, “PubChem BioAssay data set” (2004)
